Assay: Inhibition of Tamiflu-resistant Influenza A virus (A/Yokohama/67/2006 (H1N1)) sialidase

SMILES	IC50
CO[C@@H]([C@@H]1OC(C(=O)O)=C[C@H](NC(=N)N)[C@H]1NC(C)=O)[C@H](O)CO [LANINAMIVIR]	5.62 nM
CC(=O)N[C@H]1[C@H]([C@H](O)[C@H](O)CO)OC(C(=O)O)=C[C@@H]1NC(=N)N [ZANAMIVIR]	3.05 nM

— ChEMBL document CHEMBL1136912, “Synthesis and in vivo influenza virus-inhibitory effect of ester prodrug of 4-guanidino-7-O-methyl-Neu5Ac2en” (Bioorg Med Chem Lett, 2009)
